Eleven molecules from PMC6070797 (Marine Drugs, 2018) can be followed below.

Experiment [1] relates to Mouse splenocyte proliferation (T lymphocytes). Kind of experiment: Immunosuppressive activity: ConA-induced proliferation of mouse splenocytes (T lymphocytes), CCK8. Conditions: BALB/c spleen cells, 5 μg/mL ConA, 24 h, mean ± SD of three triplicate experiments. The class given is cell-based, BALB/c mice. An excerpt: To assess the biological activity of the MPA derivatives, we primarily evaluated their IMPDH2 inhibitory activity with the previously reported enzyme assay method. […] Subsequently, the MPA derivatives were further tested for the in vitro immunosuppressive activity against the proliferation of T lymphocytes. Unsurprisingly, the activity at the cellular level was markedly consistent with their IMPDH2 inhibitory activity.
BALB/c mice were sacrificed by cervical dislocation, and the spleens were removed aseptically. Mononuclear cell suspensions were prepared after cell debris, and clumps were removed. Erythrocytes were depleted with ammonium chloride buffer solution. Lymphocytes were washed and suspended in DMEM medium supplemented with 10% FBS, penicillin (100 U/mL), and streptomycin ([…]). The 5 × 10^5 (150 μL per well) spleen cells in 96-well microtiter plates were cultured at 37 °C in a humidified and 5% CO2-containing incubator for 24 h in the presence or absence of the serious concentrations (ranging from 0.1 to 100 µM) of compounds. The cultures were stimulated with 5 μg/mL of concanavalin A (ConA) to induce T cells proliferative response. After treatment for 24 h, the cell quantity was measured using a CCK8 assay kit according to the manufacturer’s instructions.

A further experiment addresses T1, IMPDH2 (Homo sapiens, UniProt P12268).
T1 construct: made in house; host or cells: Escherichia coli BL21(DE3)
Description: IMPDH2 enzyme inhibition assay (recombinant protein, absorbance at 340 nm). Type of experiment: biochemical. The note with it: recombinant IMPDH2, IMP and NAD+ substrates, pH 7.2, 37 °C; mean ± SD of three triplicate experiments; read-out: IC50 Inosine-5′-Monophosphate Dehydrogenase (IMPDH2). As for the experimental part: The gene encoding IMPDH2 was cloned into the pET-28a vector (Novagen). After the recombinant plasmids were verified by sequencing, the plasmid was transformed into Escherichia coli BL21(DE3) (Invitrogen), which was grown in LB medium at 37 °C to an OD600 (0.8–1.0) and induced by 0.4 mM isopropyl-D-thiogalactopyranoside (IPTG) and grown at 20 °C for 16 h. The cell pellet was harvested and re-suspended in 30 mL buffer (20 mM Tris pH 8.5, 200 mM NaCl, and 10 mM imidazole), followed by disruption on a French press. Cell debris was removed by centrifugation at 21,000 rpm for 30 min. […] The protein was further purified with size exclusion chromatography at 20 mM Tris pH 8.5 and 200 mM NaCl.
The IMPDH2 inhibitory effects of test compounds were measured using the recombinant protein above. The enzyme solution (20 µL, 10 µg/mL), test compounds (10 µL) and buffer (40 µL, 100 mM phosphate buffer, pH 7.2) were pipetted and mixed in a 96-well microtiter plate. The mixture was incubated for 10 min at 37 °C. After incubation, inosine 5′-monophosphate (IMP) substrate solution (30 µL, 2.5 mM) and NAD^+ (30 µL, 5 mM) were added. The reaction can be readily monitored by an increase in optical absorbance at 340 nm. […] The data were imported into Prism (version 5.0, GraphPad) and the IC50 values were calculated by using a standard dose response curve fitting.

As to `COc1c(C)c2c(c(O)c1CCC(C)C(=O)O)C(=O)OC2` (stereo not drawn) [Compound 5, 6-(3-carboxybutyl)-7-hydroxy-5-methoxy-4-methylphthalan-1-one], the IC50 (in general, the midpoint of a concentration-inhibition curve) in experiment [1] was above 40 µM; at IMPDH2, 24.7 ± 2.74 µM.
Take `COc1c(C)c2c(c(O)c1C/C=C(\C)CCC(=O)O)C(=O)OC2O` (stereo not drawn) [Compound 2, 3-hydroxy mycophenolic acid]: the IC50 in experiment [1] stood at 1.23 ± 0.07 µM; on IMPDH2 it was 0.95 ± 0.09 µM.
For `COc1c(C)c2c(c(O)c1C/C=C(\C)CCC(=O)O)C(=O)OC2OC` (stereo not drawn) [Compound 3, 6-(5-carboxy-3-methylpent-2-enyl)-7-hydroxy-3,5-dimethoxy-4-methylphthalan-1-one] the same measures were 2.76 ± 0.13 µM and 0.84 ± 0.11 µM.
Consider `COc1c(C)c2c(c(O)c1C/C=C(\C)CCC(=O)OCC(O)CO)C(=O)OC2` (stereo not drawn) [Compound 6, 6-[5-(2,3-dihydroxy-1-carboxyglyceride)-3-methylpent-2-enyl]-7-hydroxy-5-methoxy-4-methylphthalan-1-one], for which the IC50 came to 19.7 ± 0.89 µM in experiment [1] and 8.59 ± 0.43 µM on IMPDH2.
For `COc1c(C)c2c(c(O)c1C/C=C(\C)CCC(=O)N[C@@H](Cc1ccccc1)C(=O)O)C(=O)OC2` [Compound 9, N-mycophenoyl-L-phenyloalanine] the same measures were above 40 µM and 23.8 ± 3.54 µM.
Take `COc1c(C)c2c(c(O)c1C/C=C(\C)CCC(=O)N[C@H](C(=O)O)C(C)C)C(=O)OC2` [Compound 8, N-mycophenoyl-L-valine]: the IC50 is 30.6 ± 2.19 µM in experiment [1] and 15.7 ± 1.65 µM on IMPDH2.
`COc1c(C)c2c(c(O)c1C/C=C(\C)CCC(=O)O)C(=O)OC2` [MPA (11), Mycophenolic acid, reference compound] showed an IC50 in experiment [1] of 0.96 ± 0.05 µM.
For the molecule `COc1c(C)c2c(c(O)c1C/C=C(\C)CCC(=O)N[C@@H](C)C(=O)O)C(=O)OC2` [Compound 10, N-mycophenoyl-L-alanine], the IC50 was above 40 µM in experiment [1] and 17.5 ± 1.3 µM at IMPDH2.
Taken in the same sequence, the figures for `COC(=O)CC/C(C)=C/Cc1c(O)c2c(c(C)c1OC)C(O)OC2=O` (stereo not drawn) [Compound 4, 6-(5-methoxycarbonyl-3-methylpent-2-enyl)-3,7-dihydroxy-5-methoxy-4-methylphthalan-1-one] were 9.12 ± 0.38 µM and 3.27 ± 0.18 µM.
Turning to `COCc1c2c(c(O)c(C/C=C(\C)CCC(=O)O)c1OC)C(=O)OC2` [Compound 1, 8-O-methyl mycophenolic acid], the 50% inhibitory concentration (IC50) in experiment [1] amounted to 4.21 ± 0.2 µM; on IMPDH2, 0.92 ± 0.08 µM.
Taken in the same sequence, the figures for `COc1c(C)c2c(c(O)c1C/C=C(\C)CCC(=O)NCCCC(=O)O)C(=O)OC2` [Compound 7, 6-[5-(1-carboxy-4-N-carboxylate)-3-methylpent-2-enyl]-7-hydroxy-5-methoxy-4-methylphthalan-1-one] were 24.6 ± 1.34 µM and 12.6 ± 1.86 µM.
